{"source": "patent US20020111314A1", "about": "“Novel stimulation of gene expression and protein synthesis of heat shock protein 72/73 (Hsp 70)” (The Trustees of Columbia University, priority 1995, published 2002)", "key": {"HSF1": {"system": "HSF1", "experiment": "HSF1 steady-state level and trimerization (Western blot, EGS cross-linking) in HepG2 cells", "format": "cell-based, human", "details": "ALLN 40 μg/ml, 2 hours", "method": "HepG2 cells were treated with serum-free MEM containing 1.5% BSA for 2 hours at 37° C. without any additions (lane 1), at 37° C. but containing 40 μg/ml of ALLN in the medium (lane 2), at 37° C. in a medium containing both ALLN and 50 μg/ml of cycloheximide (lane 3), at 42° C. alone (lane 4), or at 42° C. plus cycloheximide in the medium (lane 5). Cell lysates were prepared as described under Experimental Details. The lysates were either directly run on the SDS-PAGE (A) to show the steady-state protein levels of HSF1 or subjected to cross-linking with ethylene glycol bis sucrinimidylsuccinate (EGS) before running the gel (B) to show the oligomeric forms of HSF1. The proteins were then transfered to a nitrocellulose membrane and immunoblotted with anti-human HSF1 antibody. Arrows on the right side indicates the monomeric, dimeric or trimeric forms of HSF1, respectively. This experiment was repeated three times with identical results.\nTotal RNA was prepared using the procedure of Chomczynski and Sacchi (Chomczynski, et al., 1987) and a commercially prepared reagent, TRISOLV™ (Biotecx Laboratories Inc., TX). Equal amounts of tRNA samples (10 μg) were size-fractionated on a 1% agarose-formaldehyde gel according to the methods described (Maniatis, et al., 1982) and transferred to a piece of QIAGEN plus nylon membrane. To determine loading and transfer efficiency, RNA was stained with ethidium bromide before and after transfer. The membrane was baked for 30 min. at 80° C. in vacuo (a vacuum) followed by UV cross-linking. It was then incubated for 4 hours at 65° C. in a prehybridization mixture containing 10% dextran sulfate, 1% SDS, 1M sodium chloride, 50 mM Tris-HCl (pH 7.5) and 100 μg/ml denatured salmon sperm DNA. Hybridization was carried out for 18 hours at 65° C. in the same buffer with a ^32P-labeled (1×10^6 cpm/ml) 40-mer oligonucleotide probe to the untranslated 5′ region of a human hsp70 gene (Oncogene Science). […] The membrane was then washed four times with 2×SSC, 0.1% SDS at room temperature, one time at 65° C. for 30 min., and one time at room temperature again for 5 min., and finally rinsed with 2×SSC at room temperature. This membrane was air dried and exposed to X-ray film at −80° C. for 48 hours. For measurement of the steady-state HSF1 protein levels, whole cell extracts were prepared by lysing the cells directly with 2×SDS-sample buffer (Maniatis, et al., 1982). For chemical cross-linking experiments, whole-cell extracts were prepared as described (Mosser, et al., 1988). Briefly, the cold PBS-washed cell pellets were quickly and repeatedly frozen in liquid nitrogen. […]"}, "[1]": {"system": "human microvascular endothelial cell line", "experiment": "TCA-cpm measurement in human microvascular endothelial cell line", "format": "cell-based", "details": "4 hours ALLN 40 μg/ml"}, "HepG2 cells": {"system": "HepG2 cells", "experiment": "Total incorporation of radiolabel (TCA cpm) as indicator of cell toxicity in HepG2 cells", "format": "cell-based, human", "details": "ALLN 10 μg/ml", "method": "FIGS. 3A-3B: Effects of the other protease inhibitors on Hsp70 biosynthesis in HepG2 cells. HepG2 cells were preincubated in serum-free MEM containing either 1.5% BSA alone (Control), or BSA plus 40 μg/ml of ALLN, 40 μg/ml of ALLM, 50 μg/ml of leupeptin, 50 μg/ml of pepstatin A, 25 μg/ml of E-64d, 1 mM of phenylmethylsulfonyl fluoride (PMSF), 100 KIU/ml of apotinin, 1 mM of Benzamidine (Benz), 200 μM of calpain inhibitor peptide (CIP). Radiolabeling (in the presence of protease inhibitors), lysis and immunoprecipitation were performed as described in FIG. 1. The Hsp70 specific radioactivity (A) and the amount of total incorporated radioactivity (TCA-cpm) (B) were compared with each other. All the values were presented as the mean±SD from three individual culture dishes.\nPreincubation and labeling media each contained either 1.5% bovine serum albumin (BSA) alone, or BSA plus ALLN (40 μg/ml except as otherwise indicated), or BSA plus other protease inhibitors at concentrations indicated in the figure legends. At the indicated times, cells were removed from the 37° C. incubator and placed on ice, washed with cold phosphate-buffer saline (PBS) twice and lysed with lysis buffer containing 1% Triton X-100 (TX100), 1% deoxycholic acid (DOC) and 0.1% SDS in PBS containing proteinase inhibitors: 2 mM phenylmethylsulfonyl fluoride (PMSF); 2 μg/ml ALLN; 2 μg/ml leupeptin; and 2 μg/ml aprotinin. After a 30 min. incubation with lysis buffer at 4° C., the lysates were centrifuged at 14,000 g in a microcentrifuge for 5 min., and the supernatants were adjusted to 1% SDS concentration and boiled for 5 min. to denature the proteins. 1% TX100 was then added to dilute the lysates to a final concentration of 0.1% SDS. Cell lysates containing equal amounts of trichloroacetic acid (TCA)-insoluble radioactivity were used for immunoprecipitations by incubating with individual monoclonal antibody (1 μg/ml) for 2.5 hours at 4° C. Protein-A Sepharose 4B was added afterwards and the lysates incubated for another 1.5 hours at 4° C. to collect the immunocomplexes. […]"}, "[2]": {"system": "cysteine proteases, calpain and cathepsin B", "details": "Rock, et al., 1994; cited from earlier work"}}, "note": "Square brackets hold non-standard residues; d marks the D form. Peptide text beside a SMILES is read from it. Nle = CCCC[C@H](N)C(=O)O"}
{"smiles": "CCCC[C@@H](C=O)NC(=O)[C@H](CC(C)C)NC(=O)[C@H](CC(C)C)NC(C)=O", "note": "[ALLN, N-acetyl-leucyl-leucyl-norleucinal] (Ac-Leu-Leu-[Nle]-aldehyde)", "values": [{"measurement": "oligomeric form of HSF1 after EGS cross-linking", "setting": "HSF1; 270-kDa cross-linked product", "value": "exists as a trimer"}, {"measurement": "steady-state levels of HSF1 in whole cell extracts", "setting": "HSF1; with or without cycloheximide", "value": "not significantly affected"}, {"measurement": "TCA-cpm measurement", "setting": "[1]", "value": "no change"}, {"measurement": "cell total incorporation of radiolabel (TCA cpm, indicator of cell toxicity)", "setting": "HepG2 cells", "value": "did not change significantly"}, {"measurement": "activities against calpain and cathepsin B", "setting": "[2]", "value": "significant activities"}]}
